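Interpolation was linear, between the two tested concentrations surrounding the appropriate level; five concentrations were tested over 48 hours in 96-well plates. Here, GI50 denotes the concentration required for 50% inhibition of growth.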 Calls of active or inactive are those of the source. No stated cut-off is given here; in the data, active = GI50 up to about 1.1 µM and inactive = higher.
Assays:
Experiment in all cases: NCI-60 cell line screen, 48 h
DLD-1 = test system: DLD-1
786-0 = test system: 786-0
DU-145 = test system: DU-145
Hs-578T = test system: Hs-578T
PC-3 = test system: PC-3
TK-10 = test system: TK-10
SF-539 = test system: SF-539
DMS-273 = test system: DMS-273
MDA-N = test system: MDA-N
T47D = test system: T47D
ACHN = test system: ACHN
A498 = test system: A498
NCI-H23 = test system: NCI-H23
NCI-H226 = test system: NCI-H226
MDA-MB-231 = test system: MDA-MB-231
M14 = test system: M14
SF-268 = test system: SF-268
MDA-MB-435 = test system: MDA-MB-435
SR = test system: SR
NCI-H522 = test system: NCI-H522
OVCAR-5 = test system: OVCAR-5
SK-MEL-28 = test system: SK-MEL-28
BT-549 = test system: BT-549
XF498 = test system: XF498
RPMI-8226 = test system: RPMI-8226
SNB-19 = test system: SNB-19
KM-20L2 = test system: KM-20L2
A549 = test system: A549
MOLT-4 = test system: MOLT-4
KM12 = test system: KM12
SW-620 = test system: SW-620
UO-31 = test system: UO-31
HCT-15 = test system: HCT-15
SN12C = test system: SN12C
HL-60 = test system: HL-60
UACC-257 = test system: UACC-257
HOP-62 = test system: HOP-62
HOP-92 = test system: HOP-92
K562 = test system: K562
HT-29 = test system: HT-29
LXFL 529 = test system: LXFL 529
OVCAR-3 = test system: OVCAR-3
UACC-62 = test system: UACC-62
U-251 = test system: U-251
IGROV-1 = test system: IGROV-1
LOX IMVI = test system: LOX IMVI
OVCAR-8 = test system: OVCAR-8
CCRF-CEM = test system: CCRF-CEM
NCI-H460 = test system: NCI-H460
CAKI-1 = test system: CAKI-1
SF-295 = test system: SF-295
SK-MEL-2 = test system: SK-MEL-2
EKVX = test system: EKVX
OVCAR-4 = test system: OVCAR-4
SNB-78 = test system: SNB-78
RXF 393 = test system: RXF 393
HCT-116 = test system: HCT-116
SK-MEL-5 = test system: SK-MEL-5
SNB-75 = test system: SNB-75
COLO 205 = test system: COLO 205
DMS-114 = test system: DMS-114
M19-MEL = test system: M19-MEL
SK-OV-3 = test system: SK-OV-3

`CCC/C=C/C=C/C(=O)OC1/C(=C/C(=O)OC)CC2CC(C(C)O)OC(=O)CC(O)CC3CC(OC(C)=O)C(C)(C)C(O)(CC4C/C(=C/C(=O)OC)CC(/C=C/C(C)(C)C1(O)O2)O4)O3` (stereo not given) was tested, and the GI50 (DLD-1) was > 10.9 µM (inactive), the GI50 (786-0) was 6.25 µM (inactive) and the GI50 (DU-145) was > 12.5 µM (inactive). The GI50 (Hs-578T) was 6.07 µM (inactive), the GI50 (PC-3) was 5.32 µM (inactive) and the GI50 (TK-10) was > 12.5 µM (inactive). For the same molecule, the GI50 (SF-539) was > 12.5 µM (inactive), the GI50 (DMS-273) was 10.6 µM (inactive) and the GI50 (MDA-N) was 7.53 µM (inactive). For the same molecule, the GI50 (T47D) was 7.01 µM (inactive), the GI50 (ACHN) was 3.34 µM (inactive) and the GI50 (A498) was 4.18 µM (inactive). For the same molecule, the GI50 (NCI-H23) was 9.89 µM (inactive), the GI50 (NCI-H226) was > 12.5 µM (inactive) and the GI50 (MDA-MB-231) was 6.22 µM (inactive). For the same molecule, the GI50 (M14) was > 11 µM (inactive), the GI50 (SF-268) was 6.95 µM (inactive) and the GI50 (MDA-MB-435) was 8.47 µM (inactive). For the same molecule, the GI50 (SR) was > 12.5 µM (inactive), the GI50 (NCI-H522) was > 12.5 µM (inactive) and the GI50 (OVCAR-5) was > 12.5 µM (inactive). For the same molecule, the GI50 (SK-MEL-28) was 9.98 µM (inactive), the GI50 (BT-549) was 8.57 µM (inactive) and the GI50 (XF498) was 3.62 µM (inactive). For the same molecule, the GI50 (RPMI-8226) was 9.98 µM (inactive) and the GI50 (SNB-19) was > 12.5 µM (inactive).
`COc1cc(OC(C)=O)cc2c(OC(C)=O)ccc(OC(C)=O)c12` was tested, and the GI50 (KM-20L2) was > 100 µM (inactive), the GI50 (A549) was > 100 µM (inactive) and the GI50 (MOLT-4) was > 100 µM (inactive). The GI50 (KM12) was > 100 µM (inactive), the GI50 (SW-620) was > 100 µM (inactive) and the GI50 (786-0) was > 100 µM (inactive). The GI50 (UO-31) was > 100 µM (inactive), the GI50 (HCT-15) was over 100 µM and the GI50 (SN12C) was > 100 µM (inactive). For the same molecule, the GI50 (HL-60) was 43.6 µM (inactive), the GI50 (UACC-257) was > 100 µM (inactive) and the GI50 (HOP-62) was > 100 µM (inactive). The GI50 (HOP-92) was 17.1 µM (inactive), the GI50 (K562) was > 100 µM (inactive) and the GI50 (TK-10) was > 100 µM (inactive). For the same molecule, the GI50 (HT-29) was > 100 µM (inactive), the GI50 (LXFL 529) was > 100 µM (inactive) and the GI50 (OVCAR-3) was > 100 µM (inactive). For the same molecule, the GI50 (UACC-62) was > 100 µM (inactive), the GI50 (ACHN) was > 100 µM (inactive) and the GI50 (A498) was > 100 µM (inactive). For the same molecule, the GI50 (U-251) was > 100 µM (inactive), the GI50 (IGROV-1) was > 100 µM (inactive) and the GI50 (NCI-H23) was > 100 µM (inactive). The GI50 (LOX IMVI) was > 100 µM (inactive), the GI50 (OVCAR-8) was > 100 µM (inactive) and the GI50 (CCRF-CEM) was 74.8 µM (inactive). The GI50 (NCI-H460) was > 100 µM (inactive), the GI50 (CAKI-1) was > 100 µM (inactive) and the GI50 (M14) was > 100 µM (inactive). The GI50 (SF-295) was > 100 µM (inactive), the GI50 (SK-MEL-2) was > 100 µM (inactive) and the GI50 (EKVX) was > 100 µM (inactive). The GI50 (OVCAR-4) was 73.6 µM (inactive), the GI50 (SF-268) was > 100 µM (inactive) and the GI50 (SR) was > 100 µM (inactive). For the same molecule, the GI50 (SNB-78) was > 100 µM (inactive), the GI50 (RXF 393) was > 100 µM (inactive) and the GI50 (NCI-H522) was > 100 µM (inactive). The GI50 (OVCAR-5) was > 100 µM (inactive), the GI50 (SK-MEL-28) was > 100 µM (inactive) and the GI50 (HCT-116) was > 100 µM (inactive). For the same molecule, the GI50 (SK-MEL-5) was > 100 µM (inactive), the GI50 (RPMI-8226) was > 100 µM (inactive) and the GI50 (SNB-19) was > 100 µM (inactive).
For `Nc1ccc([C@H]2C(=O)N[C@H]3CCC[C@H]32)cc1`, the GI50 (A549) was > 100 µM (inactive), the GI50 (SNB-75) was > 100 µM (inactive) and the GI50 (COLO 205) was > 100 µM (inactive). The GI50 (MOLT-4) was > 100 µM (inactive), the GI50 (KM12) was > 100 µM (inactive) and the GI50 (SW-620) was > 100 µM (inactive). The GI50 (UO-31) was > 100 µM (inactive), the GI50 (DMS-114) was > 100 µM (inactive) and the GI50 (HCT-15) was over 100 µM. The GI50 (SN12C) was > 100 µM (inactive), the GI50 (HL-60) was > 100 µM (inactive) and the GI50 (UACC-257) was > 100 µM (inactive). The GI50 (K562) was > 100 µM (inactive), the GI50 (TK-10) was > 100 µM (inactive) and the GI50 (HT-29) was > 100 µM (inactive). The GI50 (SF-539) was > 100 µM (inactive), the GI50 (OVCAR-3) was > 100 µM (inactive) and the GI50 (DMS-273) was > 100 µM (inactive). The GI50 (UACC-62) was > 100 µM (inactive), the GI50 (IGROV-1) was > 100 µM (inactive) and the GI50 (NCI-H23) was > 100 µM (inactive). The GI50 (LOX IMVI) was > 100 µM (inactive), the GI50 (OVCAR-8) was > 100 µM (inactive) and the GI50 (CCRF-CEM) was > 100 µM (inactive). The GI50 (NCI-H226) was > 100 µM (inactive), the GI50 (CAKI-1) was > 100 µM (inactive) and the GI50 (M14) was > 100 µM (inactive). For the same molecule, the GI50 (SF-295) was > 100 µM (inactive), the GI50 (M19-MEL) was > 100 µM (inactive) and the GI50 (SK-OV-3) was > 100 µM (inactive). For the same molecule, the GI50 (EKVX) was > 100 µM (inactive), the GI50 (SF-268) was > 100 µM (inactive) and the GI50 (RXF 393) was > 100 µM (inactive). For the same molecule, the GI50 (NCI-H522) was > 100 µM (inactive), the GI50 (SK-MEL-28) was > 100 µM (inactive) and the GI50 (XF498) was > 100 µM (inactive). The GI50 (SK-MEL-5) was > 100 µM (inactive), the GI50 (RPMI-8226) was > 100 µM (inactive) and the GI50 (SNB-19) was > 100 µM (inactive).
